Test results published in patent US10004701B2, “Methods and compositions for treating infection” (UNIVERSITY OF ROCHESTER, priority 2012, dated 2018).
Where a name gives a salt, the structure may show the parent alone. Read-outs that look alike come from different tables or passages of the source.

How the values were obtained:
Test in all cases: AK assay 384-well format, Prestwick library screening
E. faecium = assay type: cell-based, Enterococcus faecium; conditions: for fold induction at 50 µM: Enterococcus faecium, 3 h
[1] = test system: S. aureus strain USA300-0114; assay type: cell-based, Staphylococcus aureus; conditions: for fold induction at 50 µM: Staphylococcus aureus, USA300, 3 h
K. pneumoniae = assay type: cell-based, Klebsiella pneumoniae; conditions: for fold induction at 50 µM: Klebsiella pneumoniae, 3 h
[2] = test system: A. baumannii strain 98-37-09; assay type: cell-based, Acinetobacter baumannii; conditions: for fold induction at 50 µM: Acinetobacter baumannii, 983709, 3 h
P. aeruginosa = assay type: cell-based, Pseudomonas aeruginosa; conditions: for fold induction at 50 µM: Pseudomonas aeruginosa, 3 h
E. cloacae = assay type: cell-based, Enterobacter cloacae; conditions: for fold induction at 50 µM: Enterobacter cloacae, 3 h
E. coli = assay type: cell-based, Escherichia coli; conditions: for fold induction at 50 µM: Escherichia coli, 3 h
[3] = 50 μM final drug concentration, 384-well format, […]
[4] = 50 μM final drug concentration, cutoff for positive-scoring molecules 3-fold increase, read-out: AK-based Prestwick Library Screening Results, E. faecium (fold increase in extracellular AK activity)
[5] = 50 μM final drug concentration, cutoff for positive-scoring molecules 3-fold increase, read-out: AK-based Prestwick Library Screening Results, K. pneumoniae (fold increase in extracellular AK activity)
[6] = 50 μM final drug concentration, cutoff for positive-scoring molecules 3-fold increase, read-out: AK-based Prestwick Library Screening Results, A. baumannii (fold increase in extracellular AK activity)
[7] = 50 μM final drug concentration, cutoff for positive-scoring molecules 3-fold increase, read-out: AK-based Prestwick Library Screening Results, P. aeruginosa (fold increase in extracellular AK activity)
[8] = 50 μM final drug concentration, cutoff for positive-scoring molecules 3-fold increase, read-out: AK-based Prestwick Library Screening Results, E. cloacae (fold increase in extracellular AK activity)
[9] = 50 μM final drug concentration, cutoff for positive-scoring molecules 3-fold increase, read-out: AK-based Prestwick Library Screening Results, E. coli (fold increase in extracellular AK activity)
[10] = planktonic E. faecium, 50 μM final drug concentration, cutoff for positive-scoring molecules 3-fold increase, read-out: AK-based Prestwick Library Screening Results, E. faecium (increase in extracellular AK activity)
[11] = planktonic K. pneumoniae, 50 μM final drug concentration, cutoff for positive-scoring molecules 3-fold increase, read-out: AK-based Prestwick Library Screening Results, K. pneumoniae (increase in extracellular AK activity)
[12] = planktonic A. baumannii, 50 μM final drug concentration, cutoff for positive-scoring molecules 3-fold increase, read-out: AK-based Prestwick Library Screening Results, A. baumannii (increase in extracellular AK activity)
[13] = planktonic P. aeruginosa, 50 μM final drug concentration, cutoff for positive-scoring molecules 3-fold increase, read-out: AK-based Prestwick Library Screening Results, P. aeruginosa (increase in extracellular AK activity)
[14] = planktonic E. cloacae, 50 μM final drug concentration, cutoff for positive-scoring molecules 3-fold increase, read-out: AK-based Prestwick Library Screening Results, E. cloacae (increase in extracellular AK activity)

Structure (SMILES): C[C@]12CC[C@@H](O)C[C@H]1CC[C@@H]1[C@@H]2CC[C@]2(C)C(=O)CC[C@@H]12
- AK-based Prestwick Library Screening Results, E. faecium (fold increase in extracellular AK activity) (E. faecium): 1.0
- AK-based Prestwick Library Screening Results, S. aureus (fold increase in extracellular AK activity) [1]: 1.0
- AK-based Prestwick Library Screening Results, K. pneumoniae (fold increase in extracellular AK activity) (K. pneumoniae): 0.9
- AK-based Prestwick Library Screening Results, A. baumannii (fold increase in extracellular AK activity) [2]: 0.9
- AK-based Prestwick Library Screening Results, P. aeruginosa (fold increase in extracellular AK activity) (P. aeruginosa): 1.1
- AK-based Prestwick Library Screening Results, E. cloacae (fold increase in extracellular AK activity) (E. cloacae): 1.9
- AK-based Prestwick Library Screening Results, E. coli (fold increase in extracellular AK activity) (E. coli): 1.2

Structure (SMILES): CN1CCc2cccc3c2[C@H]1Cc1ccc(O)c(O)c1-3.CN1CCc2cccc3c2[C@H]1Cc1ccc(O)c(O)c1-3.Cl.Cl.O
- AK-based Prestwick Library Screening Results, E. faecium (increase in extracellular AK activity) (E. faecium; [3]): 0.8
- AK-based Prestwick Library Screening Results, S. aureus (increase in extracellular AK activity) [1, 3]: 0.9
- AK-based Prestwick Library Screening Results, K. pneumoniae (increase in extracellular AK activity) (K. pneumoniae; [3]): 0.8
- AK-based Prestwick Library Screening Results, A. baumannii (increase in extracellular AK activity) [2, 3]: 0.8
- AK-based Prestwick Library Screening Results, P. aeruginosa (increase in extracellular AK activity) (P. aeruginosa; [3]): 0.6
- AK-based Prestwick Library Screening Results, E. cloacae (increase in extracellular AK activity) (E. cloacae; [3]): 0.9
- AK-based Prestwick Library Screening Results, E. coli (increase in extracellular AK activity) (E. coli; [3]): 0.8

Structure (SMILES): CCCCC(CC)CNC(=N)NC(=N)NCCCCCCNC(=N)NC(=N)NCC(CC)CCCC (stereo not drawn) [Alexidine dihydrochloride]
- fold induction at 50 µM (E. faecium; [4]): 7.4
- fold induction at 50 µM (K. pneumoniae; [5]): 23.4
- fold induction at 50 µM [2, 6]: 12.3
- fold induction at 50 µM (P. aeruginosa; [7]): 19.2
- fold induction at 50 µM (E. cloacae; [8]): 1.5
- fold induction at 50 µM (E. coli; [9]): 43.3

Structure (SMILES): O=c1cc(-c2ccc(O)cc2)oc2cc(O)cc(O)c12 [Apigenin]
- fold induction at 50 µM (E. faecium; [10]): 0.3
- fold induction at 50 µM (K. pneumoniae; [11]): 0.2
- fold induction at 50 µM [2, 12]: 0.2
- fold induction at 50 µM (P. aeruginosa; [13]): 0.2
- fold induction at 50 µM (E. cloacae; [14]): 0.5
- fold induction at 50 µM (E. coli; planktonic E. coli, 50 μM final drug concentration, cutoff for positive-scoring molecules 3-fold increase, read-out: AK-based Prestwick Library Screening Results, E. coli (increase in extracellular AK activity)): 0.2

Structure (SMILES): O=C(O)CCCC[C@@H]1SC[C@@H]2NC(=O)N[C@@H]21 [Biotin]
- fold induction at 50 µM (E. faecium; [10]): 0.9
- fold induction at 50 µM ([1]; planktonic S. aureus, 50 μM final drug concentration, cutoff for positive-scoring molecules 3-fold increase, read-out: AK-based Prestwick Library Screening Results, S. aureus (increase in extracellular AK activity)): 1.4
- fold induction at 50 µM (K. pneumoniae; [11]): 0.6
- fold induction at 50 µM [2, 12]: 0.8
- fold induction at 50 µM (P. aeruginosa; [13]): 0.7
- fold induction at 50 µM (E. cloacae; [14]): 0.8

Structure (SMILES): [H]/N=C(\N/C(=N/[H])NCCCCCCNC(=N)NC(=N)Nc1ccc(Cl)cc1)Nc1ccc(Cl)cc1 [Chlorhexidine, chlorhexidine, reference compound]
- fold induction at 50 µM (E. faecium; planktonic E. faecium, 50 μM final drug concentration, 384-well, cutoff for positive-scoring molecules 3-fold increase, read-out: AK-based Prestwick Library Screening Results: E. faecium (increase in extracellular AK activity)): 4
- fold induction at 50 µM (K. pneumoniae; planktonic K. pneumoniae, 50 μM final drug concentration, 384-well, cutoff for positive-scoring molecules 3-fold increase, read-out: AK-based Prestwick Library Screening Results: K. pneumoniae (increase in extracellular AK activity)): 18.8
- fold induction at 50 µM ([2]; planktonic A. baumannii, 50 μM final drug concentration, 384-well, cutoff for positive-scoring molecules 3-fold increase, read-out: AK-based Prestwick Library Screening Results: A. baumannii (increase in extracellular AK activity)): 12.3
- fold induction at 50 µM (P. aeruginosa; planktonic P. aeruginosa, 50 μM final drug concentration, 384-well, cutoff for positive-scoring molecules 3-fold increase, read-out: AK-based Prestwick Library Screening Results: P. aeruginosa (increase in extracellular AK activity)): 23.8
- fold induction at 50 µM (E. cloacae; planktonic E. cloacae, 50 μM final drug concentration, 384-well, cutoff for positive-scoring molecules 3-fold increase, read-out: AK-based Prestwick Library Screening Results: E. cloacae (increase in extracellular AK activity)): 1.8
- fold induction at 50 µM (E. coli; planktonic E. coli, 50 μM final drug concentration, 384-well, cutoff for positive-scoring molecules 3-fold increase, read-out: AK-based Prestwick Library Screening Results: E. coli (increase in extracellular AK activity)): 50.1

Structure (SMILES): CS(=O)(=O)c1ccc([C@@H](O)[C@@H](CF)NC(=O)C(Cl)Cl)cc1 [Florfenicol]
- fold induction at 50 µM (E. faecium; [4]): 1
- fold induction at 50 µM (K. pneumoniae; [5]): 0.3
- fold induction at 50 µM [2, 6]: 1.2
- fold induction at 50 µM (P. aeruginosa; [7]): 1.4
- fold induction at 50 µM (E. cloacae; [8]): 1.4
- fold induction at 50 µM (E. coli; 50 μM final drug concentration, […], read-out: AK-based Prestwick Library Screening Results, E. coli (fold increase in extracellular AK activity)): 1.2

Structure (SMILES): NNc1nncc2ccccc12 [Hydralazine hydrochloride]
- fold induction at 50 µM (E. faecium; 50 μM final drug concentration, 384-well format, cutoff for positive-scoring molecules 3-fold increase, read-out: AK-based Prestwick Library Screening Results, E. faecium (increase in extracellular AK activity)): 0.3
- fold induction at 50 µM ([1]; 50 μM final drug concentration, 384-well format, cutoff for positive-scoring molecules 3-fold increase, read-out: AK-based Prestwick Library Screening Results, S. aureus (increase in extracellular AK activity)): 0.2
- fold induction at 50 µM ([2]; 50 μM final drug concentration, 384-well format, cutoff for positive-scoring molecules 3-fold increase, read-out: AK-based Prestwick Library Screening Results, A. baumannii (increase in extracellular AK activity)): 0.1
- fold induction at 50 µM (E. cloacae; 50 μM final drug concentration, 384-well format, cutoff for positive-scoring molecules 3-fold increase, read-out: AK-based Prestwick Library Screening Results, E. cloacae (increase in extracellular AK activity)): 0.3

Structure (SMILES): COc1cc(NC(C)CCCN)c2ncccc2c1 (stereo not drawn) [Primaquine diphosphate]
- fold induction at 50 µM (E. faecium; 50 μM final drug concentration, planktonic, cutoff for positive 3-fold increase, read-out: AK-based Prestwick Library Screening Results, E. faecium (fold increase in extracellular AK activity)): 0.9
- fold induction at 50 µM ([1]; 50 μM final drug concentration, planktonic, cutoff for positive 3-fold increase, read-out: AK-based Prestwick Library Screening Results, S. aureus (fold increase in extracellular AK activity)): 2.1
- fold induction at 50 µM (K. pneumoniae; 50 μM final drug concentration, planktonic, cutoff for positive 3-fold increase, read-out: AK-based Prestwick Library Screening Results, K. pneumoniae (fold increase in extracellular AK activity)): 1
- fold induction at 50 µM ([2]; 50 μM final drug concentration, planktonic, cutoff for positive 3-fold increase, read-out: AK-based Prestwick Library Screening Results, A. baumannii (fold increase in extracellular AK activity)): 1.1
- fold induction at 50 µM (P. aeruginosa; 50 μM final drug concentration, planktonic, cutoff for positive 3-fold increase, read-out: AK-based Prestwick Library Screening Results, P. aeruginosa (fold increase in extracellular AK activity)): 1
- fold induction at 50 µM (E. cloacae; 50 μM final drug concentration, planktonic, cutoff for positive 3-fold increase, read-out: AK-based Prestwick Library Screening Results, E. cloacae (fold increase in extracellular AK activity)): 1.4

Structure (SMILES): CCCCCCCCCCCCCCCC[N+](C)(C)CCN(Cc1ccc(OC)cc1)c1ncccn1 [Thonzonium bromide]
- fold induction at 50 µM (E. faecium; [4]): 7.5
- fold induction at 50 µM (K. pneumoniae; [5]): 4.7
- fold induction at 50 µM [2, 6]: 5.6
- fold induction at 50 µM (P. aeruginosa; [7]): 1.5
- fold induction at 50 µM (E. cloacae; [8]): 1.8
- fold induction at 50 µM (E. coli; [9]): 3.2

Structure (SMILES): CN[C@H](CC(C)C)C(=O)N[C@H]1C(=O)N[C@@H](CC(N)=O)C(=O)N[C@H]2C(=O)N[C@H]3C(=O)N[C@H](C(=O)N[C@H](C(=O)O)c4cc(O)cc(O)c4-c4cc3ccc4O)[C@H](O)c3ccc(c(Cl)c3)Oc3cc2cc(c3O[C@@H]2O[C@H](CO)[C@@H](O)[C@H](O)[C@H]2O[C@H]2C[C@](C)(N)[C@H](O)[C@H](C)O2)Oc2ccc(cc2Cl)[C@H]1O [Vancomycin hydrochloride]
- fold induction at 50 µM (E. faecium; read-out: AK-based Prestwick Library Screening Results, E. faecium (increase in extracellular AK activity)): 1.5
- fold induction at 50 µM (K. pneumoniae; read-out: AK-based Prestwick Library Screening Results, K. pneumoniae (increase in extracellular AK activity)): 0.8
- fold induction at 50 µM ([2]; read-out: AK-based Prestwick Library Screening Results, A. baumannii (increase in extracellular AK activity)): 1.1
- fold induction at 50 µM (P. aeruginosa; read-out: AK-based Prestwick Library Screening Results, P. aeruginosa (increase in extracellular AK activity)): 0.9
- fold induction at 50 µM (E. cloacae; read-out: AK-based Prestwick Library Screening Results, E. cloacae (increase in extracellular AK activity)): 0.9
- fold induction at 50 µM (E. coli; read-out: AK-based Prestwick Library Screening Results, E. coli (increase in extracellular AK activity)): 1.2

Structure (SMILES): O=C(NCCNCC(O)COc1ccc(O)cc1)N1CCOCC1 (stereo not drawn) [Xamoterol hemifumarate]
- fold induction at 50 µM (E. faecium; read-out: AK-based Prestwick Library Screening Results, E. faecium (fold increase in extracellular AK activity)): 1
- fold induction at 50 µM ([1]; read-out: AK-based Prestwick Library Screening Results, S. aureus (fold increase in extracellular AK activity)): 1.1
- fold induction at 50 µM (K. pneumoniae; read-out: AK-based Prestwick Library Screening Results, K. pneumoniae (fold increase in extracellular AK activity)): 0.8
- fold induction at 50 µM ([2]; read-out: AK-based Prestwick Library Screening Results, A. baumannii (fold increase in extracellular AK activity)): 1
- fold induction at 50 µM (P. aeruginosa; read-out: AK-based Prestwick Library Screening Results, P. aeruginosa (fold increase in extracellular AK activity)): 1.2
- fold induction at 50 µM (E. cloacae; read-out: AK-based Prestwick Library Screening Results, E. cloacae (fold increase in extracellular AK activity)): 1.8
